# Values of other authors as cited in patent US6472228B2, “Composition and methods for synthesis of novel tracers for detecting amphetamine and methamphetamine in samples” (Lifepoint, Inc., priority 2000, dated 2002).
# Details: GC/MASS
smiles,measurement,value
CN[C@@H](C)Cc1ccccc1 [methamphetamine],detectable in saliva samples after the last dose,up to 2 days
